From ChEMBL document CHEMBL5338814, “Discovery of Small-Molecule Degraders for Alpha-Synuclein Aggregates” (J Med Chem, 2023) come the findings set out here.

Calls of active or inactive are those of the source. The calls are words filed in the database; no cut-off is given here.

The target of data set [1] is von Hippel-Lindau disease tumor suppressor/Alpha-synuclein (Homo sapiens) (UniProt P37840+P40337). Put plainly: PROTAC activity at VHL/recombinant alpha-synuclein preformed fibrils seeded in HEK293T cells assessed as decrease in alpha-synuclein aggregates upto 40 uM measured after 48 hrs by immunoblot analysis. In kind it is cell-based. In general terms: Immunoblotting shows a protein as a band on a membrane.

Data set [2] deals with T1, Protein cereblon/Alpha-synuclein (Homo sapiens) (UniProt P37840+Q96SW2). Put plainly: PROTAC activity at CRBN/recombinant alpha-synuclein preformed fibrils seeded in HEK293T cells assessed as decrease in alpha-synuclein aggregates upto 40 uM measured after 48 hrs by immunoblot analysis. It counts as cell-based.
The target of data set [3] is T1, Protein cereblon/Alpha-synuclein (Homo sapiens). The experiment in a line: PROTAC activity at CRBN/recombinant alpha-synuclein preformed fibrils seeded in HEK293T cells assessed as decrease in alpha-synuclein aggregates at 5 to 20 uM measured after 48 hrs by immunoblot analysis. In kind it is cell-based. The following applies: dose 5-20 µM.
The target of data set [4] is Baculoviral IAP repeat-containing protein 2/Alpha-synuclein (Homo sapiens) (UniProt Q13490+P37840). The experiment in a line: PROTAC activity at cIAP1/recombinant alpha-synuclein preformed fibrils seeded in HEK293T cells assessed as decrease in alpha-synuclein aggregates upto 40 uM measured after 48 hrs by immunoblot analysis. It counts as cell-based.
Data set [5] has as its system HEK-293T. The experiment in a line: Activation of autophagy-lysosome pathway in HEK293T cells seeded with recombinant alpha-synuclein preformed fibrils assessed as increase in LC3B-II/I ratio at 10 uM incubated for 6 hrs by immunoblot analysis. In kind it is functional, cell-based. The following applies: Homo sapiens.
Data set [6] in a line: Drug uptake in HEK293T cell membrane at 10 uM measured at 5 to 360 min by confocal laser scanning microscopic analysis. The following applies: human, hek-293t, time 5-360 min. In kind it is ADME, cell membranes.
The subject of data set [7] is HEK-293T. Put plainly: Effect on alpha-synuclein total level in HEK293T cells upto 40 uM measured after 48 hrs by immunoblot analysis. In kind it is functional, cell-based. Particulars: Homo sapiens.
Data set [8] concerns HEK-293T. Put plainly: Activation of autophagy-lysosome pathway in HEK293T cells seeded with recombinant alpha-synuclein preformed fibrils harboring adenovirus-mCherry-GFP-LC3B assessed as increase in GFP(-) punctae ratio at 10 uM treated for 6 hrs by DAPI staining based confocal laser scanning microscopic analysis. In kind it is functional, cell-based. The following applies: Homo sapiens.

Data set [9] relates to Caenorhabditis elegans. The experiment in a line: In vivo PROTAC activity at CRBN/Alpha-synuclein overexpressed in Caenorhabditis elegans NL5901 co-expressing YFP fusion protein assessed as induction of alpha-synuclein aggregate degradation incubated for 48 hrs by immunoblot analysis. It counts as functional, organism-based. Particulars: dose 20-80 µM.
Data set [10] relates to HEK-293T. Put plainly: Activation of autophagy-lysosome pathway in HEK293T cells seeded with recombinant alpha-synuclein preformed fibrils harboring adenovirus-mCherry-GFP-LC3B assessed as increase in LC3B punctae density at 10 uM treated for 6 hrs by DAPI staining based confocal laser scanning microscopic analysis. In kind it is functional, cell-based. The following applies: Homo sapiens.

Data set [11] relates to Caenorhabditis elegans. Put plainly: In vivo PROTAC activity at CRBN/Alpha-synuclein overexpressed in Caenorhabditis elegans NL5901 co-expressing YFP fusion protein assessed as reduction in alpha-synuclein-YFP MFI at 20 to 80 uM incubated for 48 hrs by confocal laser scanning microscopic analysis. It counts as functional, organism-based. The following applies: dose 20-80 µM.

Data set [12] concerns HEK-293T. Put plainly: Activation of autophagy-lysosome pathway in HEK293T cells seeded with recombinant alpha-synuclein preformed fibrils assessed as increase in LAMP1 expression at 10 uM incubated for 6 hrs by immunoblot analysis. It counts as functional, cell-based. The following applies: Homo sapiens.
For data set [13], the system named is HEK-293T. Put plainly: Activation of autophagy-lysosome pathway in HEK293T cells seeded with recombinant alpha-synuclein preformed fibrils harboring adenovirus-mCherry-GFP-LC3B assessed as increase in LC3B punctae number at 10 uM treated for 6 hrs by DAPI staining based confocal laser scanning microscopic analysis. In kind it is functional, cell-based. The following applies: Homo sapiens.

Data set [14] relates to Caenorhabditis elegans. The experiment in a line: In vivo PROTAC activity at CRBN/Alpha-synuclein overexpressed in Caenorhabditis elegans NL5901 co-expressing YFP fusion protein assessed as reduction in alpha-synuclein-YFP level at 20 to 80 uM incubated for 48 hrs by confocal laser scanning microscopic analysis. In kind it is functional, organism-based. The following applies: dose 20-80 µM.

The subject of data set [15] is HEK-293T. Put plainly: Activation of autophagy-lysosome pathway in HEK293T cells seeded with recombinant alpha-synuclein preformed fibrils assessed as increase in lysosome generation at 10 uM incubated for 6 hrs by LyTR staining based confocal laser scanning microscopic analysis. In kind it is functional, cell-based. Particulars: Homo sapiens.
Data set [16] has as its system SH-SY5Y. Put plainly: Neuroprotective activity against alpha-synuclein aggregate-induced cell death in human SH-SY5Y cells over-expressing alpha-synuclein preformed fibrils assessed as decrease in cell death at 10 uM by CCK8 assay. In kind it is functional, cell-based. (In general: Tetrazolium assays rely on reduction of a dye to a coloured formazan, in cell work by metabolically active cells.)

For data set [17], the system named is HEK-293T. Put plainly: Activation of autophagy-lysosome pathway in HEK293T cells seeded with recombinant alpha-synuclein preformed fibrils assessed as decrease in p62 level at 10 uM incubated for 6 hrs by immunoblot analysis. In kind it is functional, cell-based. Particulars: Homo sapiens.
In data set [18] the test system is HEK-293T. The experiment in a line: Effect on alpha-synuclein total level in HEK293T cells seeded with recombinant alpha-synuclein preformed fibrils upto 40 uM measured after 48 hrs by immunoblot analysis. In kind it is functional, cell-based. The following applies: Homo sapiens.
The subject of data set [19] is Caenorhabditis elegans. The experiment in a line: In vivo PROTAC activity at CRBN/Alpha-synuclein overexpressed in Caenorhabditis elegans NL5901 co-expressing YFP fusion protein assessed as induction of alpha-synuclein aggregate degradation incubated for 48 hrs by dot blot analysis. Particulars: dose 20-80 µM. It counts as functional, organism-based.
The nature of data set [20]: 1-Octanol-water partition coefficient, logP of the compound incubated for 24 hrs by HPLC analysis. In kind it is physicochemical.
Data set [21] deals with HEK-293T. Put plainly: Downregulation of alpha-synuclein in HEK293T cells seeded with recombinant alpha-synuclein preformed fibrils at 10 uM incubated for 24 hrs by label free quantification based proteomics analysis. In kind it is functional, cell-based. The following applies: Homo sapiens.
Data set [22] concerns SH-SY5Y. Put plainly: Neuroprotective activity against alpha-synuclein aggregate-induced cell injury in human SH-SY5Y cells over-expressing alpha-synuclein preformed fibrils assessed as decrease in LDH release at 10 uM by LDH assay. It counts as functional, cell-based. In general terms: LDH in the medium is a marker of cell lysis.

Consider `Cc1ncsc1-c1ccc([C@H](C)NC(=O)[C@@H]2C[C@@H](O)CN2C(=O)[C@@H](NC(=O)CCOCCOCCOCCNc2cccc(-c3cc(-c4ccc5c(c4)OCO5)n[nH]3)c2)C(C)(C)C)cc1`, for which the outcome in data set [1] was Active.
With `O=C(CNc1cccc(-c2cc(-c3ccc4c(c3)OCO4)n[nH]2)c1)NCCOCCOCCNc1cccc2c1C(=O)N(C1CCC(=O)NC1=O)C2=O` (stereo not given), the outcome in [2] was Active.
Consider `CN1C(=O)CCC(N2C(=O)c3cccc(NCCOCCOCCOCCNC(=O)CNc4cccc(-c5cc(-c6ccc7c(c6)OCO7)n[nH]5)c4)c3C2=O)C1=O` (stereo not given), for which the outcome in [3] was inactive.
Take `CC(C)C[C@H](NC(=O)[C@@H](O)[C@H](N)Cc1ccccc1)C(=O)NCCOCCOCCNc1cccc(-c2cc(-c3ccc4c(c3)OCO4)n[nH]2)c1`: in data set [4], the outcome was Active.
For `Cc1ncsc1-c1ccc([C@H](C)NC(=O)[C@@H]2C[C@@H](O)CN2C(=O)[C@@H](NC(=O)CCOCCOCCNc2cccc(-c3cc(-c4ccc5c(c4)OCO5)n[nH]3)c2)C(C)(C)C)cc1`, the result in data set [1] was Active.
The logP is a log measure of how a compound divides between an organic and an aqueous phase. Lower therefore signals a more hydrophilic compound. Consider `O=C(CNc1cccc(-c2cc(-c3ccc4c(c3)OCO4)n[nH]2)c1)NCCOCCOCCOCCNc1cccc2c1C(=O)N(C1CCC(=O)NC1=O)C2=O` (stereo not given), for which the outcome in [5], in data set [8], in data set [10], in [11], in [12] and in data set [13] was Active. Also, the outcome in data set [14], in data set [15], in data set [16], in data set [17], in data set [21] and in data set [22] was Active. For the same molecule, the Drug uptake result in [6] is listed as “Active”. Also, the outcome in data set [7] and in data set [18] was inactive. The Activity entry in data set [9] and in data set [19] was “Dose-Dependent Effect” in each case. Further, in data set [20], the log partition coefficient (logP) at 24 h stood at 2.04.
`CC(C)C[C@H](NC(=O)[C@@H](O)[C@H](N)Cc1ccccc1)C(=O)NCCOCCOCCOCCNc1cccc(-c2cc(-c3ccc4c(c3)OCO4)n[nH]2)c1`: in [4], the result was Active.
On to `Nc1cccc(-c2cc(-c3ccc4c(c3)OCO4)n[nH]2)c1`, for which the outcome in data set [3] was inactive.
